Usually Ki stands for a measure of affinity in units of concentration, obtained from inhibition or displacement. A higher Ki goes with weaker binding.

The assay can be described thus: Compound was tested for the inhibition of influenza virus sialidase using 2'-(4-methylumbelliferyl)-N-acetylneuraminic acid substrate. On the set-up: species or system unidentified influenza virus.
In turn, `CC(=O)N[C@H]1[C@H]([C@H](O)[C@H](O)CO)OC(C(=O)O)=C[C@H]1N` showed a Ki of 0.04 µM.

Compound `CC(=O)NC1C(O)CC(O)(C(=O)O)OC1[C@H](O)[C@H](O)CO` (stereo not given in full) gave a Ki of 1000 µM.

`CC(=O)N[C@@H]1C(N)C=C(C(=O)O)O[C@H]1[C@H](O)[C@H](O)CO` (single isomer, unassigned) had a Ki of 0.3 µM.

`CC(=O)N[C@@H]1C(NC(=N)N)C=C(C(=O)O)OC1[C@H](O)[C@H](O)CO` (stereo not given in full): the Ki is 3e-05 µM.

With `CC(=O)NC1C(O)C=C(C(=O)O)OC1[C@H](O)[C@H](O)CO` (stereo not given in full), affinity was put at a Ki of 4 µM.

Source of the values: ChEMBL document CHEMBL1129656, “A study of the active site of influenza virus sialidase: an approach to the rational design of novel anti-influenza drugs” (J Med Chem, 1996).
